According to the supplement of paper PMC10307832:

Tests used:
Experiment in all cases: relative viability (nuclei count vs DMSO), 5 days (fraction); higher = more cells survive
NCI-H1651 = test system: NCI-H1651
Method in brief: (§1)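 Lung cancer cell lines in 1536-well plates were dosed by pin tool the day after seeding, either with one drug alone or with a fixed anchor-drug dose plus five library-drug doses (not always all listed) in √10 steps. After 5 days, cells were fixed and their nuclei stained in one step (final 0.05% Triton X-100, 1% formaldehyde, 1 ug/ml Hoechst), then counted on 4× images. Relative viability is the nuclei count in treated wells divided by that in vehicle wells. Values are medians of duplicate plates.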

LOU-NH91 = test system: LOU-NH91
Method in brief: as §1

NCI-H1395 = test system: NCI-H1395
Method in brief: as §1

NCI-H1437 = test system: NCI-H1437
Method in brief: as §1

NCI-H1734 = test system: NCI-H1734
Method in brief: as §1

SK-LU-1 = test system: SK-LU-1
Method in brief: as §1

LCLC-103H = test system: LCLC-103H
Method in brief: as §1

NCI-H2405 = test system: NCI-H2405
Method in brief: as §1

NCI-H23 = test system: NCI-H23
Method in brief: as §1

RERF-LC-KJ = test system: RERF-LC-KJ
Method in brief: as §1

NCI-H1792 = test system: NCI-H1792
Method in brief: as §1

NCI-H1915 = test system: NCI-H1915
Method in brief: as §1

NCI-H1793 = test system: NCI-H1793
Method in brief: as §1

NCI-H1975 = test system: NCI-H1975
Method in brief: as §1

EMC-BAC-2 = test system: EMC-BAC-2
Method in brief: as §1

UMC-11 = test system: UMC-11
Method in brief: as §1

HCC-78 = test system: HCC-78
Method in brief: as §1

NCI-H2023 = test system: NCI-H2023
Method in brief: as §1

EPLC-272H = test system: EPLC-272H
Method in brief: as §1

NCI-H661 = test system: NCI-H661
Method in brief: as §1

201T = test system: 201T
Method in brief: as §1

NCI-H647 = test system: NCI-H647
Method in brief: as §1

SMILES: O=c1[nH]c2ccccc2n1C1CCN(CCCC(c2ccc(F)cc2)c2ccc(F)cc2)CC1 [Pimozide] + CC(=O)Nc1cccc(-n2c(=O)n(C3CC3)c(=O)c3c(Nc4ccc(I)cc4F)n(C)c(=O)c(C)c32)c1 [Trametinib] (partner 0.02 µM)
- relative viability (NCI-H1651; first compound 0.08 µM): 0.833
- relative viability (NCI-H1651; first compound 0.253 µM): 0.79
- relative viability (NCI-H1651; first compound 0.8 µM): 0.829
- relative viability (NCI-H1651; first compound 2.53 µM): 0.82
- relative viability (NCI-H1651; first compound 8 µM): 0.853
- relative viability (LOU-NH91; first compound 0.08 µM): 0.649
- relative viability (LOU-NH91; first compound 0.253 µM): 0.822
- relative viability (LOU-NH91; first compound 0.8 µM): 0.755
- relative viability (LOU-NH91; first compound 2.53 µM): 0.841
- relative viability (LOU-NH91; first compound 8 µM): 0.819
- relative viability (NCI-H1395; first compound 0.08 µM): 0.929
- relative viability (NCI-H1395; first compound 0.253 µM): 0.924
- relative viability (NCI-H1395; first compound 0.8 µM): 0.993
- relative viability (NCI-H1395; first compound 2.53 µM): 1.09
- relative viability (NCI-H1395; first compound 8 µM): 0.916
- relative viability (NCI-H1437; first compound 0.08 µM): 0.652
- relative viability (NCI-H1437; first compound 0.253 µM): 0.495
- relative viability (NCI-H1437; first compound 0.8 µM): 0.441
- relative viability (NCI-H1437; first compound 2.53 µM): 0.376
- relative viability (NCI-H1437; first compound 8 µM): 0.412
- relative viability (NCI-H1734; first compound 0.08 µM): 0.685
- relative viability (NCI-H1734; first compound 0.253 µM): 0.697
- relative viability (NCI-H1734; first compound 0.8 µM): 0.734
- relative viability (NCI-H1734; first compound 2.53 µM): 0.657
- relative viability (NCI-H1734; first compound 8 µM): 0.673
- relative viability (SK-LU-1; first compound 0.08 µM): 0.463
- relative viability (SK-LU-1; first compound 0.253 µM): 0.472
- relative viability (SK-LU-1; first compound 0.8 µM): 0.455
- relative viability (SK-LU-1; first compound 2.53 µM): 0.404
- relative viability (SK-LU-1; first compound 8 µM): 0.352
- relative viability (LCLC-103H; first compound 0.08 µM): 0.676
- relative viability (LCLC-103H; first compound 0.253 µM): 0.656
- relative viability (LCLC-103H; first compound 0.8 µM): 0.642
- relative viability (LCLC-103H; first compound 2.53 µM): 0.631
- relative viability (LCLC-103H; first compound 8 µM): 0.669
- relative viability (NCI-H2405; first compound 0.08 µM): 0.606
- relative viability (NCI-H2405; first compound 0.253 µM): 0.65
- relative viability (NCI-H2405; first compound 0.8 µM): 0.621
- relative viability (NCI-H2405; first compound 2.53 µM): 0.491
- relative viability (NCI-H2405; first compound 8 µM): 0.36
- relative viability (NCI-H23; first compound 0.08 µM): 0.377
- relative viability (NCI-H23; first compound 0.253 µM): 0.369
- relative viability (NCI-H23; first compound 0.8 µM): 0.291
- relative viability (NCI-H23; first compound 2.53 µM): 0.369
- relative viability (NCI-H23; first compound 8 µM): 0.318
- relative viability (RERF-LC-KJ; first compound 0.08 µM): 0.851
- relative viability (RERF-LC-KJ; first compound 0.253 µM): 0.778
- relative viability (RERF-LC-KJ; first compound 0.8 µM): 0.742
- relative viability (RERF-LC-KJ; first compound 2.53 µM): 0.764
- relative viability (RERF-LC-KJ; first compound 8 µM): 0.609
- relative viability (NCI-H1792; first compound 0.08 µM): 0.466
- relative viability (NCI-H1792; first compound 0.253 µM): 0.412
- relative viability (NCI-H1792; first compound 0.8 µM): 0.36
- relative viability (NCI-H1792; first compound 2.53 µM): 0.393
- relative viability (NCI-H1792; first compound 8 µM): 0.454
- relative viability (NCI-H1915; first compound 0.08 µM): 0.293
- relative viability (NCI-H1915; first compound 0.253 µM): 0.296
- relative viability (NCI-H1915; first compound 2.53 µM): 0.296
- relative viability (NCI-H1915; first compound 8 µM): 0.287
- relative viability (NCI-H1793; first compound 0.08 µM): 0.478
- relative viability (NCI-H1793; first compound 0.253 µM): 0.391
- relative viability (NCI-H1793; first compound 0.8 µM): 0.391
- relative viability (NCI-H1793; first compound 2.53 µM): 0.44
- relative viability (NCI-H1793; first compound 8 µM): 0.515
- relative viability (NCI-H1975; first compound 0.08 µM): 0.273
- relative viability (NCI-H1975; first compound 0.253 µM): 0.405
- relative viability (NCI-H1975; first compound 0.8 µM): 0.363
- relative viability (NCI-H1975; first compound 2.53 µM): 0.353
- relative viability (NCI-H1975; first compound 8 µM): 0.227
- relative viability (EMC-BAC-2; first compound 0.08 µM): 0.814
- relative viability (EMC-BAC-2; first compound 0.253 µM): 0.891
- relative viability (EMC-BAC-2; first compound 0.8 µM): 0.792
- relative viability (EMC-BAC-2; first compound 2.53 µM): 0.815
- relative viability (EMC-BAC-2; first compound 8 µM): 0.802
- relative viability (UMC-11; first compound 0.08 µM): 0.602
- relative viability (UMC-11; first compound 0.253 µM): 0.675
- relative viability (UMC-11; first compound 0.8 µM): 0.655
- relative viability (UMC-11; first compound 2.53 µM): 0.681
- relative viability (UMC-11; first compound 8 µM): 0.918
- relative viability (HCC-78; first compound 0.08 µM): 0.704
- relative viability (HCC-78; first compound 0.8 µM): 0.688
- relative viability (HCC-78; first compound 2.53 µM): 0.776
- relative viability (HCC-78; first compound 8 µM): 0.757
- relative viability (NCI-H2023; first compound 0.08 µM): 0.584
- relative viability (NCI-H2023; first compound 0.253 µM): 0.532
- relative viability (NCI-H2023; first compound 0.8 µM): 0.582
- relative viability (NCI-H2023; first compound 2.53 µM): 0.429
- relative viability (NCI-H2023; first compound 8 µM): 0.362
- relative viability (EPLC-272H; first compound 0.08 µM): 0.282
- relative viability (EPLC-272H; first compound 0.253 µM): 0.26
- relative viability (EPLC-272H; first compound 0.8 µM): 0.27
- relative viability (EPLC-272H; first compound 2.53 µM): 0.263
- relative viability (EPLC-272H; first compound 8 µM): 0.233
- relative viability (NCI-H661; first compound 0.08 µM): 0.598
- relative viability (NCI-H661; first compound 0.253 µM): 0.583
- relative viability (NCI-H661; first compound 0.8 µM): 0.498
- relative viability (NCI-H661; first compound 2.53 µM): 0.492
- relative viability (NCI-H661; first compound 8 µM): 0.409
- relative viability (201T; first compound 0.08 µM): 0.717
- relative viability (201T; first compound 0.253 µM): 0.726
- relative viability (201T; first compound 0.8 µM): 0.7
- relative viability (201T; first compound 2.53 µM): 0.732
- relative viability (201T; first compound 8 µM): 0.686
- relative viability (NCI-H647; first compound 0.08 µM): 0.555
- relative viability (NCI-H647; first compound 0.253 µM): 0.491
- relative viability (NCI-H647; first compound 0.8 µM): 0.476
- relative viability (NCI-H647; first compound 2.53 µM): 0.316
- relative viability (NCI-H647; first compound 8 µM): 0.353
